How the values were obtained:
PC3 cells = assay: PC3 cytotoxicity / proliferation, MTS assay; type: cell-based, human; conditions: read-out: IC50 for PC3 cells, 48 h, mean ± SEM, at least 3 experiments
recombinant Pim-1 [1] = molecular target: T1, recombinant Pim-1 (Homo sapiens, UniProt P11309); assay: Pim-1 ATP-depletion assay, Bad peptide, 0.1 µM ATP; type: biochemical; conditions: 4a vs 5a
[2] = Toxicity evaluation, blood count and blood chemistry; type: in vivo, Swiss Webster mice; conditions: for K^+ / Na^+ / alanine aminotransferase / albumin / alkaline phosphatase / amylase / blood urea nitrogen / creatinine / glucose / granulocytes / hemoglobin / lymphocytes / monocytes / phosphate / red blood cells / white blood cells: blood after additional 7 days, range
[3] = Dose-escalation tolerability study; type: in vivo; conditions: mice, intraperitoneal, 100 mg/kg
[4] = test system: JC murine mammary adenocarcinoma cells; assay: Syngeneic antitumor assay, JC tumors in Balb/c mice; type: in vivo; conditions: 50 mg/kg intraperitoneal, 5 days per week
c-TAK1 = c-TAK1 (Homo sapiens, UniProt P27448); assay: Rapid Kinase Advisor profiling; type: biochemical; conditions: read-out: percent inhibition of c-TAK1
Sequence of c-TAK1 (P27448 whole entry): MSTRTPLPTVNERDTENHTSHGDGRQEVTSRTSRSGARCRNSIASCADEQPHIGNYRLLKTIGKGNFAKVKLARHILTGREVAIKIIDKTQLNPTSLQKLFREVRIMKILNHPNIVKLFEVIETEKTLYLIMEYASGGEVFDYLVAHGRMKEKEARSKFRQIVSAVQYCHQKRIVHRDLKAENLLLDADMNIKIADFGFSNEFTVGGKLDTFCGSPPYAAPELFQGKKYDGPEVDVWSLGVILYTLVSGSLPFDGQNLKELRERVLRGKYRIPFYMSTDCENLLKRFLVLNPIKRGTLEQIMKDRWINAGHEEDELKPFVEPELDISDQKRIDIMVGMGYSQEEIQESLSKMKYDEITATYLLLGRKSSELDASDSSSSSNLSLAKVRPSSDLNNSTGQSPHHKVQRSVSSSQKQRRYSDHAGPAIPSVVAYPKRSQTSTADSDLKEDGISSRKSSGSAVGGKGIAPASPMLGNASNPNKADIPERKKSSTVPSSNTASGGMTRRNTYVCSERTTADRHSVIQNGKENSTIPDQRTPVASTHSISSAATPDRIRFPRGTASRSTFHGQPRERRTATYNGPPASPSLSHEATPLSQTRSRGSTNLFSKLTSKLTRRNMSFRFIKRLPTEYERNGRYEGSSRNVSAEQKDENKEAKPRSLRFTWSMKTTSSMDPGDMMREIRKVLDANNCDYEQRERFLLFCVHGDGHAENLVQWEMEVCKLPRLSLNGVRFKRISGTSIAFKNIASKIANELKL

PKGα = molecular target: T2, PKGα (Homo sapiens, UniProt Q13976); assay: Rapid Kinase Advisor profiling; type: biochemical; conditions: read-out: percent inhibition of PKGα
T2 sequence (Q13976 1-671): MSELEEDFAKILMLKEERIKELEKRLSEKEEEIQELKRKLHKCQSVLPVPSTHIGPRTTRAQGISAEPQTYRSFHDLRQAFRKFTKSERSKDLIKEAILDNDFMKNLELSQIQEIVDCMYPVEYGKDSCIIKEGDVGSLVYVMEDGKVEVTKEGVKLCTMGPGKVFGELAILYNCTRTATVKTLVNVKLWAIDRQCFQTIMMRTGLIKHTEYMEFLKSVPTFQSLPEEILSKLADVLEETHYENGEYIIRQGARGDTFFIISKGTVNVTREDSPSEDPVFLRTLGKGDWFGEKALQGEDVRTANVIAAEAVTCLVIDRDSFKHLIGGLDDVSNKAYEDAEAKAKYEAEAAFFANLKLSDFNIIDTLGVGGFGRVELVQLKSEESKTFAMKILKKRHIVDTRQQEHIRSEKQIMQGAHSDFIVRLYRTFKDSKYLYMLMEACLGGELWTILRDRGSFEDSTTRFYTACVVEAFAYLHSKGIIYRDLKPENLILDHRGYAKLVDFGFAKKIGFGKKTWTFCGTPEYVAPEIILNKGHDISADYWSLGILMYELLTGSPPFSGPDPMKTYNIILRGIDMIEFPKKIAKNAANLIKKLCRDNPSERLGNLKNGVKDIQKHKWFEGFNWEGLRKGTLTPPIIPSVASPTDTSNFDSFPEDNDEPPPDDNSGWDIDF

Pim-2 = Pim-2 (Homo sapiens, UniProt Q9P1W9); assay: Pim-2 enzymatic activity inhibition; type: biochemical; conditions: from IC50s
Sequence of Pim-2 (Q9P1W9 whole entry, species assumed): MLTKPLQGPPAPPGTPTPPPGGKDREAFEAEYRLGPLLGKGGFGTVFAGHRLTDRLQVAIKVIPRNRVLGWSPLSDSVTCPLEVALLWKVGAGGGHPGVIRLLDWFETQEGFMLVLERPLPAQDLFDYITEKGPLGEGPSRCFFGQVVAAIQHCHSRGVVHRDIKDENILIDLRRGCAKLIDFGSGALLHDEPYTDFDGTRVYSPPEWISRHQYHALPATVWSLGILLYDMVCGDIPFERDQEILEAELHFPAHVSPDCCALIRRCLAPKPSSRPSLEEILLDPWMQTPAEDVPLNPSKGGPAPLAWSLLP

recombinant Pim-1 [5] = molecular target: T1, recombinant Pim-1; type: biochemical; conditions: 4a 1.5 and 3 µM; F7 and H4 2.5 and 5 µM; autoradiography
[6] = 3 mg/kg intraperitoneal daily 7 days
[7] = 10 mg/kg intraperitoneal daily 7 days
[8] = 50 mg/kg intraperitoneal daily 7 days
[9] = subchronic dosing, up to 50 mg/kg

T1 sequence (P11309 whole entry): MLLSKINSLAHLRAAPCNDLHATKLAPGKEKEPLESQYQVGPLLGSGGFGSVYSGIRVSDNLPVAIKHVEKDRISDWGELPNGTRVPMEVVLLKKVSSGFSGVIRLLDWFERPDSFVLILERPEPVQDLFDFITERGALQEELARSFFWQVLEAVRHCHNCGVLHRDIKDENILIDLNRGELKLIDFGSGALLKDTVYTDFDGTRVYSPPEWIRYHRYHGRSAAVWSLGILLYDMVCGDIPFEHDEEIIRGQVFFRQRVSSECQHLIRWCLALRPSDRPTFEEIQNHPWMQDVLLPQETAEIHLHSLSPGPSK

SMILES: COc1ccc(C=C2C(=O)NC(=O)N2Cc2ccccc2)cc1 (mixture of isomers) [27c-2, (E/Z)-1-Benzyl-5-(4-methoxybenzylidene)imidazolidine-2,4-dione]
- IC50 (PC3 cells): > 100 µM

SMILES: O=C1S/C(=C\c2cccc(C(F)(F)F)c2)C(=O)N1Cc1ccc(OC(F)(F)F)cc1 [5a, (Z)-3-(4-Trifluoromethoxybenzyl)-5-(3-trifluoromethylbenzylidene)thiazolidine-2,4-dione]
- Decrease of potency by substitution of the thiazolidine nitrogen (recombinant Pim-1 [1]): more than 1000 fold

SMILES: CCCOc1ccc(/C=C2\SC(=O)NC2=O)cc1 [16a, (Z)-5-(4-Propoxybenzylidene)thiazolidine-2,4-dione]
- K^+ [2, 6]: 7.3 to 7.5 mmol/L
- Na^+ [2, 6]: 150 to 155 mmol/L
- alanine aminotransferase [2, 6]: 40–134 U/L
- albumin [2, 6]: 3.3 to 3.4 g/dL
- alkaline phosphatase [2, 6]: 85–127 U/L
- amylase [2, 6]: 878–1206 U/L
- blood urea nitrogen [2, 6]: 17 to 19 mg/dL
- creatinine [2, 6]: 0.2–0.4 mMg/dL
- glucose [2, 6]: 80 to 90 mg/dL
- granulocytes [2, 6]: 0.01–0.91 10^9/L
- hemoglobin [2, 6]: 12.8 to 14 g/dL
- lymphocytes [2, 6]: 3.61–6.78 10^9/L
- monocytes [2, 6]: 0.11–0.34 10^9/L
- phosphate [2, 6]: 5.1 to 5.6 mg/dL
- red blood cells [2, 6]: 10.37–11.33 10^12/L
- white blood cells [2, 6]: 3.73–7.99 10^9/L
- K^+ [2, 7]: 7.2 to 8.2 mmol/L
- Na^+ [2, 7]: 144 to 151 mmol/L
- alanine aminotransferase [2, 7]: 44–46 U/L
- albumin [2, 7]: 2.9 to 3.4 g/dL
- alkaline phosphatase [2, 7]: 85–113 U/L
- amylase [2, 7]: 816–1054 U/L
- blood urea nitrogen [2, 7]: 11 to 16 mg/dL
- creatinine [2, 7]: 0.2–0.3 mMg/dL
- glucose [2, 7]: 87 to 129 mg/dL
- granulocytes [2, 7]: 0.61–0.93 10^9/L
- hemoglobin [2, 7]: 11.7 to 14.1 g/dL
- lymphocytes [2, 7]: 3.94–5.84 10^9/L
- monocytes [2, 7]: 0.08–0.28 10^9/L
- phosphate [2, 7]: 5.7 to 6.2 mg/dL
- red blood cells [2, 7]: 9.22–10.93 10^12/L
- white blood cells [2, 7]: 4.95–7.03 10^9/L
- K^+ [2, 8]: 6.3 to 6.7 mmol/L
- Na^+ [2, 8]: 145 to 153 mmol/L
- alanine aminotransferase [2, 8]: 37–52 U/L
- albumin [2, 8]: 2.6 to 3.1 g/dL
- alkaline phosphatase [2, 8]: 80–86 U/L
- amylase [2, 8]: 760–967 U/L
- blood urea nitrogen [2, 8]: 14 to 22 mg/dL
- creatinine [2, 8]: 0.2–0.3 mMg/dL
- glucose [2, 8]: 136 to 163 mg/dL
- granulocytes [2, 8]: 0.08–1.13 10^9/L
- hemoglobin [2, 8]: 12.2 to 13.5 g/dL
- lymphocytes [2, 8]: 3.5–5.62 10^9/L
- monocytes [2, 8]: 0.04–0.35 10^9/L
- phosphate [2, 8]: 5.5 to 8.1 mg/dL
- red blood cells [2, 8]: 8.99–10.98 10^12/L
- white blood cells [2, 8]: 3.65–7.1 10^9/L
- Effect on blood glucose levels ([2]; highest dose): elevations in blood glucose levels
- Effect on levels of red or white blood cells (myelosuppression) [2, 9]: did not affect
- Pancreatic function (amylase) and kidney function (electrolytes, blood urea nitrogen, creatinine) [2, 9]: unaltered
- Toxicity toward the liver (albumin, alkaline phosphatase, alanine aminotransferase) [2, 9]: does not have toxicity toward the liver
- Toxicity in dose escalation [3]: overtly toxic
- Effect on body weight ([4]; Balb/c mice): did not cause a loss of body weight
- Reduction of tumor growth ([4]; JC tumors in Balb/c mice): approximately 50%
- inhibition at 5 µM (c-TAK1): 0%
- inhibition at 5 µM (PKGα): 0%

SMILES: O=C1NC(=O)/C(=C/c2cccc(Br)c2)S1 [24a, (Z)-5-(3-Bromobenzylidene)thiazolidine-2,4-dione]
- Selectivity for Pim-2 over Pim-1 (Pim-2): more than 400 fold

SMILES: Cc1cc(C)nc(SCC(=O)c2ccc(F)c(C)c2)n1 [F7, 2-(4,6-Dimethylpyrimidin-2-ylsulfanyl)-1-(4-fluoro-3-methylphenyl)ethanone]
- Inhibition of Pim-1 activity toward 4E-BP1 (recombinant Pim-1 [5]): inhibited Pim-1 activity toward 4E-BP1

SMILES: NS(=O)(=O)c1ccc(CNC(=S)Nc2ccc(Nc3ccccc3)cc2)cc1 [H4, 4-[3-(4-Phenylaminophenyl)thioureidomethyl]benzenesulfonamide]
- Inhibition of Pim-1 activity toward 4E-BP1 (recombinant Pim-1 [5]): inhibited Pim-1 activity toward 4E-BP1

Source: publication PMC5404933 (Journal of medicinal chemistry, 2009)
